Patent US20240376163A1, “PEPTIDE FOR INHIBITING CALCINEURIN AND USE THEREOF” (Seoul National University R&DB Foundation, priority 2023, published 2024)

Tested on: Jurkat T cells
Assay: mRNA sequencing of activated Jurkat T cells
Format: cell-based, human
Settings: P + I

PEITVTPPTP [CABIN1-L-1-2]
MSMO1 FPKM (Jurkat T cells): 52.664 FPKM | MT2A FPKM (Jurkat T cells): 409.501 FPKM | MXD3 FPKM (Jurkat T cells): 20.08 FPKM | MYB FPKM (Jurkat T cells): 48.107 FPKM | MZB1 FPKM (Jurkat T cells): 23.597 FPKM | N4BP3 FPKM (Jurkat T cells): 2.499 FPKM | NAA16 FPKM (Jurkat T cells): 3.877 FPKM | NCKAP1 FPKM (Jurkat T cells): 10.157 FPKM | NCOA3 FPKM (Jurkat T cells): 11.775 FPKM | NDRG1 FPKM (Jurkat T cells): 128.386 FPKM | NDRG2 FPKM (Jurkat T cells): 2.149 FPKM | NEDD9 FPKM (Jurkat T cells): 4.972 FPKM | NFATC1 FPKM (Jurkat T cells): 3.916 FPKM | NFKB1 FPKM (Jurkat T cells): 44.661 FPKM | NFKB2 FPKM (Jurkat T cells): 71.869 FPKM | NLRC3 FPKM (Jurkat T cells): 5.507 FPKM | NME4 FPKM (Jurkat T cells): 17.501 FPKM | NOTCH2 FPKM (Jurkat T cells): 12.916 FPKM | NOTCH3 FPKM (Jurkat T cells): 0.859 FPKM | NPDC1 FPKM (Jurkat T cells): 5.64 FPKM | NR4A3 FPKM (Jurkat T cells): 1.977 FPKM | NREP FPKM (Jurkat T cells): 6.879 FPKM | NRP1 FPKM (Jurkat T cells): 14.016 FPKM | NSG1 FPKM (Jurkat T cells): 3.929 FPKM | NSMF FPKM (Jurkat T cells): 3.265 FPKM | NT5E FPKM (Jurkat T cells): 12.217 FPKM | NTRK1 FPKM (Jurkat T cells): 1.657 FPKM | ODC1 FPKM (Jurkat T cells): 374.309 FPKM | OPTN FPKM (Jurkat T cells): 14.333 FPKM | OSBPL5 FPKM (Jurkat T cells): 3.123 FPKM | PAM FPKM (Jurkat T cells): 1.934 FPKM | PCNA-AS1 FPKM (Jurkat T cells): 71.806 FPKM | PDCD1 FPKM (Jurkat T cells): 1.974 FPKM | PDGFA FPKM (Jurkat T cells): 8.169 FPKM | PDGFC FPKM (Jurkat T cells): 2.913 FPKM | PDIA6 FPKM (Jurkat T cells): 128.39 FPKM | PDLIM1 FPKM (Jurkat T cells): 5.135 FPKM | PELI2 FPKM (Jurkat T cells): 8.166 FPKM | PEX5L FPKM (Jurkat T cells): 1.299 FPKM | PHACTR2 FPKM (Jurkat T cells): 2.791 FPKM | PHLDB2 FPKM (Jurkat T cells): 3.404 FPKM | PI16 FPKM (Jurkat T cells): 9.625 FPKM | PKIG FPKM (Jurkat T cells): 11.17 FPKM | PKM FPKM (Jurkat T cells): 1838.428 FPKM | PLAC8 FPKM (Jurkat T cells): 1.896 FPKM | PLEC FPKM (Jurkat T cells): 25.453 FPKM | PLS3 FPKM (Jurkat T cells): 0.37 FPKM | POTEE FPKM (Jurkat T cells): 1.196 FPKM | POU2AF1 FPKM (Jurkat T cells): 2.971 FPKM | POU2F2 FPKM (Jurkat T cells): 4.109 FPKM | PPIF FPKM (Jurkat T cells): 106.533 FPKM | PPP1R15A FPKM (Jurkat T cells): 76.265 FPKM | PPP1R16B FPKM (Jurkat T cells): 26.306 FPKM | PRDM8 FPKM (Jurkat T cells): 40.783 FPKM | PRNP FPKM (Jurkat T cells): 41.922 FPKM | PSMB10 FPKM (Jurkat T cells): 125.268 FPKM | PTPN6 FPKM (Jurkat T cells): 20.806 FPKM | PTPN7 FPKM (Jurkat T cells): 78.61 FPKM | PXYLP1 FPKM (Jurkat T cells): 4.92 FPKM | QPRT FPKM (Jurkat T cells): 10.818 FPKM | RAB37 FPKM (Jurkat T cells): 1.369 FPKM | RASGRP1 FPKM (Jurkat T cells): 3.909 FPKM | RASGRP2 FPKM (Jurkat T cells): 2.335 FPKM | RB1 FPKM (Jurkat T cells): 49.538 FPKM | RCBTB2 FPKM (Jurkat T cells): 7.77 FPKM | RCOR2 FPKM (Jurkat T cells): 1.298 FPKM | RGS2 FPKM (Jurkat T cells): 3.39 FPKM | RHOU FPKM (Jurkat T cells): 1.378 FPKM | RNF19A FPKM (Jurkat T cells): 12.101 FPKM | RNF212 FPKM (Jurkat T cells): 1.401 FPKM | RORA FPKM (Jurkat T cells): 1.998 FPKM | RRAS2 FPKM (Jurkat T cells): 20.023 FPKM | RTN4R FPKM (Jurkat T cells): 1.548 FPKM | RUNX1 FPKM (Jurkat T cells): 28.867 FPKM | RUNX3 FPKM (Jurkat T cells): 28.166 FPKM | SASH3 FPKM (Jurkat T cells): 46.514 FPKM | SBK1 FPKM (Jurkat T cells): 5.945 FPKM | SCG2 FPKM (Jurkat T cells): 86.711 FPKM | SCHIP1 FPKM (Jurkat T cells): 1.333 FPKM | SEPT3 FPKM (Jurkat T cells): 0.994 FPKM | SEPT6 FPKM (Jurkat T cells): 44.841 FPKM | SEPT9 FPKM (Jurkat T cells): 39.741 FPKM | SERINC5 FPKM (Jurkat T cells): 3.312 FPKM | SERPINB8 FPKM (Jurkat T cells): 23.508 FPKM | SERPINE2 FPKM (Jurkat T cells): 3.911 FPKM | SERTAD1 FPKM (Jurkat T cells): 14.426 FPKM | SGK1 FPKM (Jurkat T cells): 105.258 FPKM | SH2D1A FPKM (Jurkat T cells): 16.781 FPKM | SH2D2A FPKM (Jurkat T cells): 22.586 FPKM | SH3TC1 FPKM (Jurkat T cells): 1.895 FPKM | SIVA1 FPKM (Jurkat T cells): 51.964 FPKM | SLAMF1 FPKM (Jurkat T cells): 0.275 FPKM | SLAMF7 FPKM (Jurkat T cells): 3.544 FPKM | SLAMF8 FPKM (Jurkat T cells): 5.828 FPKM | SLC22A1 FPKM (Jurkat T cells): 42.379 FPKM | SLC27A2 FPKM (Jurkat T cells): 41.908 FPKM | SLC29A4 FPKM (Jurkat T cells): 1.658 FPKM | SLC35E4 FPKM (Jurkat T cells): 1.517 FPKM | SLC35G2 FPKM (Jurkat T cells): 11.385 FPKM | SMAD1 FPKM (Jurkat T cells): 3.995 FPKM | SMOX FPKM (Jurkat T cells): 18.934 FPKM | SMPD1 FPKM (Jurkat T cells): 18.206 FPKM | SORBS1 FPKM (Jurkat T cells): 0.511 FPKM | SOX4 FPKM (Jurkat T cells): 55.775 FPKM | SPINT1 FPKM (Jurkat T cells): 1.712 FPKM | SPRY1 FPKM (Jurkat T cells): 4.901 FPKM | SPRY4 FPKM (Jurkat T cells): 7.991 FPKM | SPSB1 FPKM (Jurkat T cells): 9.593 FPKM | SPTBN2 FPKM (Jurkat T cells): 2.053 FPKM | SRGN FPKM (Jurkat T cells): 9.743 FPKM | SSBP2 FPKM (Jurkat T cells): 5.549 FPKM | ST3GAL6 FPKM (Jurkat T cells): 5.239 FPKM | STAT2 FPKM (Jurkat T cells): 36.117 FPKM | STAT3 FPKM (Jurkat T cells): 74.439 FPKM | STAU2 FPKM (Jurkat T cells): 5.719 FPKM | STMN3 FPKM (Jurkat T cells): 7.407 FPKM | STX1A FPKM (Jurkat T cells): 13.882 FPKM | SYK FPKM (Jurkat T cells): 6.222 FPKM | TAGAP FPKM (Jurkat T cells): 8.731 FPKM | TAL1 FPKM (Jurkat T cells): 18.466 FPKM | TAP2 FPKM (Jurkat T cells): 6.702 FPKM | TAPBPL FPKM (Jurkat T cells): 20.693 FPKM | TBC1D4 FPKM (Jurkat T cells): 13.191 FPKM | TBC1D5 FPKM (Jurkat T cells): 3.021 FPKM | TBKBP1 FPKM (Jurkat T cells): 22.205 FPKM | TCF3 FPKM (Jurkat T cells): 36.607 FPKM | TCF7 FPKM (Jurkat T cells): 11.184 FPKM | TCF12 FPKM (Jurkat T cells): 29.903 FPKM | TDRD9 FPKM (Jurkat T cells): 1.888 FPKM | TGFBR2 FPKM (Jurkat T cells): 36.254 FPKM | THEM6 FPKM (Jurkat T cells): 2.542 FPKM | THEMIS FPKM (Jurkat T cells): 35.627 FPKM | TIAF1 FPKM (Jurkat T cells): 9.375 FPKM | TIAM1 FPKM (Jurkat T cells): 9.551 FPKM | TIAM2 FPKM (Jurkat T cells): 0.301 FPKM | TLE1 FPKM (Jurkat T cells): 1.647 FPKM | TMCC3 FPKM (Jurkat T cells): 7.278 FPKM | TNFAIP3 FPKM (Jurkat T cells): 35.424 FPKM | TNFRSF10B FPKM (Jurkat T cells): 36.431 FPKM | TNFSF10 FPKM (Jurkat T cells): 49.452 FPKM | TNFSF14 FPKM (Jurkat T cells): 4.255 FPKM | TPM4 FPKM (Jurkat T cells): 178.336 FPKM | TPST2 FPKM (Jurkat T cells): 29.147 FPKM | TRAF3IP3 FPKM (Jurkat T cells): 11.237 FPKM | TRIB1 FPKM (Jurkat T cells): 4.108 FPKM | TRIM21 FPKM (Jurkat T cells): 42.08 FPKM | TTLL1 FPKM (Jurkat T cells): 3.295 FPKM | UBE2L6 FPKM (Jurkat T cells): 167.347 FPKM | UHRF1 FPKM (Jurkat T cells): 6.903 FPKM | VAMP1 FPKM (Jurkat T cells): 14.752 FPKM | VAT1 FPKM (Jurkat T cells): 40.336 FPKM | VAV1 FPKM (Jurkat T cells): 22.182 FPKM | WARS FPKM (Jurkat T cells): 112.259 FPKM | WDR76 FPKM (Jurkat T cells): 8.215 FPKM | XCL1 FPKM (Jurkat T cells): 1.144 FPKM | XCL2 FPKM (Jurkat T cells): 2.074 FPKM | XIRP1 FPKM (Jurkat T cells): 13.281 FPKM | XRCC6BP1 FPKM (Jurkat T cells): 9.204 FPKM | YPEL1 FPKM (Jurkat T cells): 4.38 FPKM | ZFP36L1 FPKM (Jurkat T cells): 136.279 FPKM | ZFP36L2 FPKM (Jurkat T cells): 9.774 FPKM | ZNF280D FPKM (Jurkat T cells): 2.132 FPKM | ZNF367 FPKM (Jurkat T cells): 2.274 FPKM | ZNF480 FPKM (Jurkat T cells): 6.823 FPKM | ZNF521 FPKM (Jurkat T cells): 1.965 FPKM | ZNF652 FPKM (Jurkat T cells): 2.469 FPKM | ZNF704 FPKM (Jurkat T cells): 0.183 FPKM | ZNF827 FPKM (Jurkat T cells): 1.372 FPKM | ZNFX1 FPKM (Jurkat T cells): 19.096 FPKM | ZP4 FPKM (Jurkat T cells): 5.182 FPKM | ZYX FPKM (Jurkat T cells): 85.489 FPKM | ADORA2A FPKM: 1.475 FPKM | AGK FPKM: 14.306 FPKM | ARHGEF3 FPKM: 8.674 FPKM | ASAP1 FPKM: 9.052 FPKM | ATG14 FPKM: 11.252 FPKM | ATP6V1B2 FPKM: 60.661 FPKM | BCL2L1 FPKM: 41.852 FPKM | C3 FPKM: 1.329 FPKM | C10orf54 FPKM: 0.487 FPKM | CABP1 FPKM: 1.689 FPKM | CCDC64 FPKM: 11.039 FPKM | CCL1 FPKM: 0.415 FPKM | CCL3 FPKM: 0.502 FPKM | CCL3L1 FPKM: 0.079 FPKM | CCL3L3 FPKM: 0.079 FPKM | CCL4 FPKM: 4.062 FPKM | CCL4L1 FPKM: 0.328 FPKM | CCL4L2 FPKM: 0.328 FPKM | CCL20 FPKM: 1.279 FPKM | CCND2 FPKM: 0.99 FPKM | CD27-AS1 FPKM: 4.613 FPKM | CD27 FPKM: 3.4 FPKM | CD55 FPKM: 12.082 FPKM | CD70 FPKM: 7.606 FPKM | CD97 FPKM: 21.496 FPKM | CD200 FPKM: 0.094 FPKM | COL27A1 FPKM: 5.729 FPKM | CREB5 FPKM: 1.966 FPKM
